Test results published in paper PMC5659721 (Journal of medicinal chemistry, 2017).

What was measured:
wild-type TTR [1] = biological target: T1, wild-type TTR (Homo sapiens, UniProt P02766); assay: Co-crystallography / X-ray diffraction analysis of TTR·ligand complexes; details: co-crystal structures
wild-type TTR [2] = biological target: T1, wild-type TTR; assay: Competitive fluorescence; assay type: binding; details: 5 vs 1, 6 vs 2
TTR = TTR (Homo sapiens, UniProt P02766); assay: Reversibility of binding assessed with mass spectrometry; details: mass spectrometry (Figure S3)
wild-type TTR [3] = biological target: T1, wild-type TTR; details: orientation in T4-binding site; cited from earlier work

SMILES	covalent interaction / boronic ester formation with binding-pocket residues (wild-type TTR [1])	also measured
O=C(O)c1cccc(/C=C/c2ccc(O)cc2)c1 [Compound 5, 3-[(1E)-2-(4-Hydroxyphenyl)ethenyl]-benzoic Acid]	–	Kd,2 fold higher than those of stilbenes 1 and 2, respectively (wild-type TTR [2]): 3 fold
O=C(O)c1cccc(/C=C/c2ccc(B(O)O)cc2)c1 [Compound 6, 3-[(1E)-2-(4-Boronic acid)ethenyl]-benzoic Acid]	did not exhibit covalent interactions	Kd,2 fold higher than those of stilbenes 1 and 2, respectively (wild-type TTR [2]): 2 fold
O=C(O)c1cccc(/C=C/c2ccc(B(O)O)cc2Cl)c1 [Compound 8, 3-[(1E)-2-(2-Chloro-4-boronic Acid)ethenyl]-benzoic]	did not exhibit covalent interactions	–
OB(O)c1ccc(/C=C/c2ccc(B(O)O)cc2Cl)c(Cl)c1 [Compound 10, 1,1′-(1E)-(1,2-Ethenediyl)bis[2-chloro-4-boronic acid]-benzene]	–	reversibility of binding with TTR (TTR): reversible
O=C(O)c1ccc2nc(-c3cc(Cl)cc(Cl)c3)oc2c1 [Compound 12, 2-(3,5-dichlorophenyl)-6-benzoxazolecarboxylic acid]	–	binding mode (wild-type TTR [3]): forward ^d

The next lines start with results.

covalent interaction / boronic ester formation with binding-pocket residues (wild-type TTR [1])	SMILES	also measured
did not exhibit covalent interactions	OB(O)c1ccc(/C=C/c2cc(O)cc(O)c2)cc1 [Compound 2, 5-[(1E)-2-(4-Boronic acid)ethenyl]-1,3-benzenediol]	–
did not exhibit covalent interactions	OB(O)c1ccc(/C=C/c2cc(O)cc(O)c2)c(Cl)c1 [Compound 4, 5-[(1E)-2-(2-Chloro-4-boronic Acid)ethenyl]-1,3-benzenediol]	–
